From patent US4975531A, “Sakyomicin E and the derivatives thereof, a process for the preparation thereof and the use thereof” (Behringwerke Aktiengesellschaft, priority 1988, dated 1990)

Experiments:
L1210 cells = experiment: Proliferation test (MTT assay), L1210; format: cell-based, murine; conditions: 72 hours
Method: (§1) The cytotoxic activity of the compounds according to the invention was measured in two different in vitro test systems.
(§2) 1. Proliferation test (MTT assay)
(§3) In this test system, the number of live or dead cells after incubation with the test substance for 3 days is measured by means of the NADP-dependent reduction of a colorless substrate to give a deep red-colored final product, which occurs only in live cells.
(§4) Control experiments contain merely growth medium in place of the test substance. Quadruplicate determinations were set up for each test substance and for the controls. After incubation for 65 hours, 50 μl of an MTT solution (2.5 mg/ml in phosphate buffered saline) are added. In the presence of live cells MTT is reduced to a dark-red insoluble formazan pigment. […] The insoluble pigment is dissolved by addition of 100 μl of DMSO, and the extinction of the solution produced in this way is subsequently measured for each well in a Multiscan photometer 340 CC from Flow at a wavelength of 492 nm.

A 549 cells = experiment: Proliferation test (MTT assay), A 549; format: cell-based, human; conditions: A 549, MTT, 72 hours
Method: as §1, §2, §3, §4

HT 29 cells = experiment: Proliferation test (MTT assay), HT 29; format: cell-based, human; conditions: HT 29, MTT, 72 hours
Method: as §1, §2, §3, §4

tumor cell colonies = experiment: Stem Cell Test (inhibition of tumor cell colony formation in soft agar); format: cell-based; conditions: cell line not given; for IC50 Cont. incubation (colony formation in soft agar): continuous incubation
Method: as §1
This test system examines the ability of the test substance to inhibit the formation of tumor cell colonies in soft agar. The test was carried out by the method described by Hamburger and Salmon, with the modifications described below. Conditioned medium was replaced by McCoy 5A medium. […] The cells were incubated with various concentrations of the test substance at 37° C. for 1 hour. The cells were then washed twice with McCoy 5A medium and then plated out as the upper layer in a two-layer agar system in accordance with the Hamburger and Salmon method. Additional parallel experiments were carried out using a continuous incubation time, in which case various concentrations of the test substance were mixed with the upper agar layer before plating out the cells.
After this time, colonies with a diameter of (greater than) 60 μm were counted using an image analysis system (FAS II, Bausch and Lomb).
The IC50 for continuous and one-hour incubation was determined from the dose-effect plot (Tab. 2).

E. coli = experiment: antibacterial effect in vitro, agar plate diffusion test, E. coli; format: cell-based; conditions: agar plate diffusion test (10 μl/test disk 6 mm in diameter)
Method: (§5) Examples of various organisms which emerge as sensitive to an inhibitory concentration of greater than 10 μg/ml are: E. coli, Staph. aureus, Strep. faecalis.

Staph. aureus = experiment: antibacterial effect in vitro, agar plate diffusion test, Staph. aureus; format: cell-based; conditions: agar plate diffusion test (10 μl/test disk 6 mm in diameter)
Method: as §5

Strep. faecalis = experiment: antibacterial effect in vitro, agar plate diffusion test, Strep. faecalis; format: cell-based; conditions: agar plate diffusion test (10 μl/test disk 6 mm in diameter)
Method: as §5

[1] = system: Gram-positive and Gram-negative bacteria; experiment: antibacterial effect in vitro against Gram-positive and Gram-negative bacteria, agar plate diffusion test; format: cell-based
Method: as §5

[2] = system: human and animal tumor cells; experiment: tumor-inhibiting effect in vitro; format: cell-based
solubility = format: physicochemical
stability = format: physicochemical

For 2,8,4'-tri-O-acetylsakyomicin E, the “IC50 L1210 (concentration which just kills 50% of the cells)” value (L1210 cells) was 0.29 µg/mL, the “IC50 A 549 (concentration which just kills 50% of the cells)” value (A 549 cells) was 0.37 µg/mL and the “IC50 HT 29 (concentration which just kills 50% of the cells)” value (HT 29 cells) was 0.11 µg/mL. For the same substance, the “IC50 1 h incubation (colony formation in soft agar)” value (tumor cell colonies) was “above 1.0 μg/ml” and the “IC50 Cont. incubation (colony formation in soft agar)” value (tumor cell colonies) was 0.30 µg/mL.
In the case of sakyomicin E, the “IC50 L1210 (concentration which just kills 50% of the cells)” value (L1210 cells) was 0.50 µg/mL, the “IC50 A 549 (concentration which just kills 50% of the cells)” value (A 549 cells) was 0.30 µg/mL and the “IC50 HT 29 (concentration which just kills 50% of the cells)” value (HT 29 cells) was 0.08 µg/mL. For the same substance, the “IC50 1 h incubation (colony formation in soft agar)” value (tumor cell colonies) was 3.0 µg/mL, the “IC50 Cont. incubation (colony formation in soft agar)” value (tumor cell colonies) was 0.24 µg/mL and the “inhibitory concentration, E. coli” value (E. coli) was “greater than 10 μg/ml”. The “inhibitory concentration, Staph. aureus” value (Staph. aureus) was “greater than 10 μg/ml”, the “inhibitory concentration, Strep. faecalis” value (Strep. faecalis) was “greater than 10 μg/ml” and the “antibacterial effect against Gram-positive and Gram-negative bacteria” value [1] was “exhibits an antibacterial effect”. The “tumor-inhibiting effect in vitro” value [2] was “tumor-inhibiting effect”, the solubility in alkanes (solubility; alkanes) was “insoluble or only very slightly soluble” and the “solubility in ethyl acetate, methanol, acetone, DMSO and chloroform” value (solubility; ethyl acetate, methanol, acetone, DMSO and chloroform) was “readily soluble”. The stability in solution (stability; in solution in the pH range from 3 to 9, especially from 5 to 8) was “stable” and the “stability in the solid state” value (stability; solid state) was “stable”.
